# Laboratory results reported in PubChem BioAssay (NCI).
#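 Values below derive from 48-hour exposures of cells grown in 96-well plates, with endpoints linearly interpolated between the two concentrations bracketing the appropriate inhibition level. GI50 = concentration required for 50% inhibition of growth. TGI is the concentration that stops growth completely.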
# Key:
# Assay in all cases: NCI tumour cell line growth inhibition, 48 h
# HCC-2998 colon = test system: HCC-2998 colon
# HOP-62 NSCLC = test system: HOP-62 NSCLC
# SN12C renal = test system: SN12C renal
# NCI-H460 lung = test system: NCI-H460 lung
# SNB-19 CNS = test system: SNB-19 CNS
# RPMI-8226 leukemia = test system: RPMI-8226 leukemia
# HCT-15 colon = test system: HCT-15 colon
# PC-3 prostate = test system: PC-3 prostate
# MCF7 breast = test system: MCF7 breast
# SF-295 CNS = test system: SF-295 CNS
# OVCAR-8 ovarian = test system: OVCAR-8 ovarian
# EKVX NSCLC = test system: EKVX NSCLC
# CAKI-1 renal = test system: CAKI-1 renal
# MDA-MB-435 = test system: MDA-MB-435
# U251 CNS = test system: U251 CNS
# CCRF-CEM leukemia = test system: CCRF-CEM leukemia
# KM12 colon = test system: KM12 colon
# SW-620 colon = test system: SW-620 colon
# NCI-H23 lung = test system: NCI-H23 lung
# UACC-257 melanoma = test system: UACC-257 melanoma
# BT-549 breast = test system: BT-549 breast
# UACC-62 melanoma = test system: UACC-62 melanoma
# M14 melanoma = test system: M14 melanoma
# SNB-75 CNS = test system: SNB-75 CNS
# OVCAR-5 ovarian = test system: OVCAR-5 ovarian
# OVCAR-4 ovarian = test system: OVCAR-4 ovarian
# IGROV1 ovarian = test system: IGROV1 ovarian
# K-562 leukemia = test system: K-562 leukemia
# SK-MEL-28 melanoma = test system: SK-MEL-28 melanoma
compound,measurement,setting,value
CC(C)c1ccc(NC(=O)Cc2ccc(Nc3ncnc4cc(-c5cnn(CCN(C)C)c5)ccc34)cc2)cc1,GI50,HCC-2998 colon,1660 nM
same,TGI,HCC-2998 colon,3420 nM
same,GI50,HOP-62 NSCLC,> 10000 nM
same,TGI,HOP-62 NSCLC,> 10000 nM
same,GI50,SN12C renal,1340 nM
same,TGI,SN12C renal,3050 nM
same,GI50,NCI-H460 lung,190 nM
same,TGI,NCI-H460 lung,2330 nM
same,GI50,SNB-19 CNS,1270 nM
same,TGI,SNB-19 CNS,3390 nM
same,GI50,RPMI-8226 leukemia,1950 nM
same,TGI,RPMI-8226 leukemia,4750 nM
same,GI50,HCT-15 colon,1550 nM
same,TGI,HCT-15 colon,4080 nM
same,GI50,PC-3 prostate,1310 nM
same,TGI,PC-3 prostate,2920 nM
same,GI50,MCF7 breast,1060 nM
same,TGI,MCF7 breast,3040 nM
same,GI50,SF-295 CNS,2470 nM
same,TGI,SF-295 CNS,> 10000 nM
same,GI50,OVCAR-8 ovarian,1290 nM
same,TGI,OVCAR-8 ovarian,3540 nM
same,GI50,EKVX NSCLC,2420 nM
same,TGI,EKVX NSCLC,9230 nM
same,GI50,CAKI-1 renal,1180 nM
same,TGI,CAKI-1 renal,2880 nM
same,GI50,MDA-MB-435,2340 nM
same,TGI,MDA-MB-435,> 10000 nM
same,GI50,U251 CNS,1700 nM
same,TGI,U251 CNS,4500 nM
same,GI50,CCRF-CEM leukemia,52.2 nM
same,TGI,CCRF-CEM leukemia,4680 nM
same,GI50,KM12 colon,64.1 nM
same,TGI,KM12 colon,1390 nM
same,GI50,SW-620 colon,1180 nM
same,TGI,SW-620 colon,2760 nM
same,GI50,NCI-H23 lung,4140 nM
same,TGI,NCI-H23 lung,> 10000 nM
same,GI50,UACC-257 melanoma,> 10000 nM
same,TGI,UACC-257 melanoma,> 10000 nM
same,GI50,BT-549 breast,3960 nM
same,TGI,BT-549 breast,> 10000 nM
same,GI50,UACC-62 melanoma,> 10000 nM
same,TGI,UACC-62 melanoma,> 10000 nM
same,GI50,M14 melanoma,1280 nM
same,TGI,M14 melanoma,2970 nM
same,GI50,SNB-75 CNS,162 nM
same,TGI,SNB-75 CNS,2030 nM
same,GI50,OVCAR-5 ovarian,1440 nM
same,TGI,OVCAR-5 ovarian,3280 nM
same,GI50,OVCAR-4 ovarian,1510 nM
same,TGI,OVCAR-4 ovarian,3050 nM
same,GI50,IGROV1 ovarian,1480 nM
same,TGI,IGROV1 ovarian,3640 nM
same,GI50,K-562 leukemia,2120 nM
same,TGI,K-562 leukemia,5940 nM
same,GI50,SK-MEL-28 melanoma,> 10000 nM
same,TGI,SK-MEL-28 melanoma,> 10000 nM
